Source: US6365178B1, “Method of making pressure sensitive adhesive matrix patches for transdermal drug delivery using hydrophilic salts of drugs and hydrophobic pressure sensitive adhesive dispersions” (priority 1996, dated 2002)
Where a name gives a salt, the structure may show the parent alone.

Assays:
[1] = Visual/microscopic observation of matrix films for drug crystals after preparation and on storage (physical stability); assay type: physicochemical; conditions: for Drug crystals in dried films: organic solvent-based adhesives MA-24, DUROTAK 2979
Experimental: As used herein, “physical stability” of a drug in a matrix patch includes the lack of recrystallization of the drug in the dried adhesive layer of the patch.
Pressure sensitive adhesive matrix systems described herein were prepared as follows. First, the solids content of a water-based or solvent-based adhesive in liquid form was determined by placing a known weight of liquid in a weighed aluminum dish and evaporating the solvents overnight in a 70° C. convection oven. The content of solid adhesive in the liquid was calculated by dividing the adhesive solid weight after drying by the initial total liquid weight. In some cases, the polyisobutylene (PIB) adhesives were prepared from polyisobutylene solids. The solid PIB was first dissolved in heptane to achieve a final solid content of about 30% by weight, and then the exact solid content was determined as described above. Next, a weighed quantity of adhesive liquid was added to a glass bottle, and the solid adhesive weight was calculated from the known solid fraction of the given adhesive liquid. The drug substance (hydrophilic salt or free drug form) was weighed and added to the adhesive solution in a quantity necessary to achieve a selected dry matrix film composition. The liquid containing the adhesive polymer drug substance was then mixed overnight. […] After mixing, approximately 8 ml of the solution was dispensed on a silanized polyester release liner and film cast using a casting knife with a gap size appropriate to achieve a final dried thickness of approximately 0.05-0.1 mm. The cast was dried in a 70° C. convection oven for 15-30 minutes to yield a dried matrix onto which an 0.08 mm thick polyethylene backing film was laminated. These matrix systems were then used to conduct in vitro skin flux experiments as described below. […]
The systems manufactured with the salt and the water-based adhesive dispersions were stored at room temperature and examined using optical microscopy at 100× magnification for the presence of drug crystals.

[2] = Dissolution of drug substance in liquid adhesive or solvent during matrix preparation; assay type: physicochemical; conditions: for Dissolution in organic solvent-based adhesives / Dissolution in water-based adhesive dispersions: Example 1, 5% (w/w) in dried film; for Dissolution in organic solvent-based adhesives: MA-24, DUROTAK 2979; for Dissolution in water-based adhesive dispersions: PIB-500, NACOR 72-9965; for Dissolution in organic solvent system: Example 7, equivalent to 1% or 2% (w/w) diclofenac sodium
Experimental: Pressure sensitive adhesive matrix systems described herein were prepared as follows. First, the solids content of a water-based or solvent-based adhesive in liquid form was determined by placing a known weight of liquid in a weighed aluminum dish and evaporating the solvents overnight in a 70° C. convection oven. The content of solid adhesive in the liquid was calculated by dividing the adhesive solid weight after drying by the initial total liquid weight. In some cases, the polyisobutylene (PIB) adhesives were prepared from polyisobutylene solids. […] Next, a weighed quantity of adhesive liquid was added to a glass bottle, and the solid adhesive weight was calculated from the known solid fraction of the given adhesive liquid. The drug substance (hydrophilic salt or free drug form) was weighed and added to the adhesive solution in a quantity necessary to achieve a selected dry matrix film composition. The liquid containing the adhesive polymer drug substance was then mixed overnight. […] The cast was dried in a 70° C. convection oven for 15-30 minutes to yield a dried matrix onto which an 0.08 mm thick polyethylene backing film was laminated. These matrix systems were then used to conduct in vitro skin flux experiments as described below.

[3] = Example 8, Nacor 72-9965 with 5.0% Kollidon 90F, 12%
[4] = 5% (w/w) drug in Lord PIB-500 (water-based PIB) matrix, room temperature, microscopic
[5] = Example 7, TSR, equivalent to 1% or 2% (w/w) diclofenac sodium
[6] = Example 2, NACOR 72-9965, 1% or 2% (w/w)
[7] = Example 2, TSR and DURO-TAK 2516, 1% or 2% (w/w)

With albuterol sulfate the “Observations: drug crystals” value ([1]; 10% (w/w) in NACOR 9965 (water-based acrylic) with 5% KOLLIDON 90F, 59 weeks of storage at 40° C./75% RH, microscopic) was “No crystals were observed”.
With CCN(CC)CC(=O)Nc1c(C)cccc1C [lidocaine free base, lidocaine] the “Drug crystals in dried matrix” value ([1]; Example 9, DURO-TAK 2516, equivalent to 1% (w/w) HCl salt) was “visibly free of drug crystals”.
For CC(=O)CC(c1ccccc1)c1c(O)c2ccccc2oc1=O (stereo not drawn) [sodium warfarin, warfarin sodium], the “Dissolution in water-based dispersion” value [2, 3] was “dissolved readily” and the “Drug crystals in dry matrix” value [1, 3] was “free from visible and microscopic drug crystals”.
With CC(C)(C)NCC(O)c1ccc(O)c(CO)c1 (stereo not drawn) [Albuterol Free Base, albuterol] the “Observations: drug crystals” value ([1]; 10% (w/w) in TSR (organic solvent-based acrylic), 59 weeks of storage at 40° C./75% RH, microscopic) was “Crystals were observed”.
For CC(=O)CC(c1ccccc1)c1c(O)c2ccccc2oc1=O (stereo not drawn) [Warfarin free drug, warfarin], the “Dissolution in organic solvents” value ([2]; Example 8, TSR, 12% (w/w)) was “dissolved readily” and the “Drug crystals in dry film” value ([1]; Example 8, TSR, 12% (w/w), visible and microscopic) was “free from drug crystals”.
For O=C1CC2(CCCC2)CC(=O)N1CCCCN1CCN(c2ncccn2)CC1 [Buspirone Free Base, buspirone], the “Dissolution in organic solvent-based adhesives” value [2] was “dissolved readily”, the “Dissolution in water-based adhesive dispersions” value [2] was “water insoluble” and the “Observations: crystals form within” value [1, 4] was “Crystals form within 3 days”. The “Observations: crystals form within” value ([1]; 5% (w/w) drug in MA-24 (organic solvent-based PIB) matrix, room temperature, microscopic) was “Crystals form within 11 days”, the “Drug crystals in dried films” value ([1]; Example 1, 5% (w/w)) was “visibly homogeneous and free from drug crystals” and the “Recrystallization of buspirone in laminate” value ([1]; PIB adhesive (MA-24)/buspirone free base/isocetyl alcohol 86/1.5/12.5% (w/w), room temperature and 40° C./70%RH for 3 weeks, microscopic) was “No recrystallization of buspirone occurred”.
With Clc1cccc(Cl)c1N=C1NCCN1 [clonidine free base, clonidine] the “Dissolution in organic solvent solution” value ([2]; Example 10, VISTANEX MM L-100/LM-MH PIB blend in organic solvents, equivalent to 2% (w/w) HCl salt) was “dissolved readily” and the “Drug crystals in dry matrix film” value ([1]; Example 10, VISTANEX MM L-100/LM-MH PIB blend, equivalent to 2% (w/w) HCl salt) was “free from drug crystals”.
For O=C(O)Cc1ccccc1Nc1c(Cl)cccc1Cl [diclofenac free acid, diclofenac], the “Dissolution in organic solvent system” value ([2]; TSR) was “completely dissolved” and the “Drug crystals in dried matrix” value [1, 5] was “visually free of drug crystals”.
In the case of O=C1CC2(CCCC2)CC(=O)N1CCCCN1CCN(c2ncccn2)CC1 [Buspirone HCl, buspirone hydrochloride], the “Dissolution in organic solvent-based adhesives” value ([2]; hydrochloride) is reported as “did not dissolve”, the “Dissolution in water-based adhesive dispersions” value ([2]; hydrochloride) is reported as “dissolved readily” and the “Dissolution in water-based adhesive dispersion” value [2, 6] is reported as “dissolved completely”. The “Dissolution in organic solvents of solvent-based adhesives” value [2, 7] was “did not dissolve completely”, the Dissolution in acetone ([2]; Example 3, 0.70 g in 9.2 g acetone) was “did not completely dissolve” and the “Dissolution in acetone/isocetyl alcohol mixture” value ([2]; Example 3, 0.70 g, 9.2 g acetone, 6.1 g isocetyl alcohol) was “did not completely dissolve”. The “Dissolution in acetone/isocetyl alcohol/PIB adhesive mixture” value ([2]; Example 3, blended with MA-24 organic solvent-based PIB adhesive) was “did not completely dissolve”, the “Results: dissolution in solvent and in solvent/isocetyl alcohol/PIB adhesive mixture” value ([2]; Table 6, Acetone 12.0 g, 0.7 g drug) was “Buspirone hydrochloride (0.7 g) did not dissolve in” and the “Results: effect of addition of solvent solution PIB adhesive” value ([2]; Table 6, Chloroform) was “resulted in precipitation of buspirone, and the resulting”. The “Results: dissolution in solvent and solvent/isocetyl alcohol mixture” value ([2]; Table 6, Chloroform 12.0 g, 0.7 g drug) was “Buspirone hydrochloride (0.7 g) dissolved in chloroform”, the “Results: dissolution in solvent and in solvent/isocetyl alcohol/PIB adhesive mixture” value ([2]; Table 6, Ethyl acetate 12.0 g, 0.7 g drug) was “Buspirone hydrochloride (0.7 g) did not dissolve in” and the “Results: behaviour of solvent/isocetyl alcohol/PIB adhesive mixture” value ([2]; Table 6, Methanol) was “phase separated”. The “Results: dissolution in solvent” value ([2]; Table 6, Methanol 12.0 g, 0.7 g drug) was “Buspirone hydrochloride (0.7 g) dissolved in methanol”, the “Results: dissolution in solvent and in solvent/isocetyl alcohol/PIB adhesive mixture” value ([2]; Table 6, Toluene 12.0 g, 0.7 g drug) was “Buspirone hydrochloride (0.7 g) did not dissolve in” and the “Results: behaviour of solvent/isocetyl alcohol/adhesive solution” value ([2]; Table 6, Water) was “phase separated. The resulting cast contained distinct”. The “Results: dissolution in solvent” value ([2]; Table 6, Water 1.5 g, 0.7 g drug) was “Buspirone hydrochloride (0.7 g) dissolved in water”, the “Observations: no crystals observed after” value [1, 4] was “No crystals observed after 7 weeks” and the “Observations: drug crystals” value ([1]; 5% (w/w) drug in MA-24 (organic solvent-based PIB) matrix, immediately after preparation) was “crystals present”. For the same compound, the “Drug crystals in dried films” value ([1]; Example 1, 5% (w/w), hydrochloride) was “filled with drug crystals”, the “Drug crystals in dried film” value ([1]; Example 1, water-based adhesive dispersions PIB-500, NACOR 72-9965, 5% (w/w)) was “no crystals were found” and the “Drug crystals in dried adhesive matrix” value [1, 6] was “visibly free of drug crystals”. The “Drug crystals in final dried casts” value [1, 7] was “contained visible solid drug crystals”, the “Drug crystals in laminate” value ([1]; PIB adhesive (MA-24)/buspirone hydrochloride/isocetyl alcohol 86/1.5/12.5% (w/w), naked eye and microscopic) was “filled with buspirone crystals” and the “Results: buspirone crystals in resulting cast” value (“Results: buspirone crystals” for short) ([1]; Table 6, Chloroform) was “cast contained extensive buspirone crystals”. For the same compound, the “Results: buspirone crystals” value ([1]; Table 6, Ethyl acetate) was “resulting cast contained extensive buspirone crystals”, the “Results: casting of mixture” value ([1]; Table 6, Methanol, adhesive formed a gel-like ball) was “impossible to cast” and the “Results: buspirone crystals” value ([1]; Table 6, Toluene) was “contained extensive buspirone crystals”. For the same compound, the “Results: buspirone crystallization in resulting cast” value ([1]; Table 6, Water, buspirone only in water-rich phase) was “extensively within 24 hours after casting”.
For CCN(CC)CC(=O)Nc1c(C)cccc1C [lidocaine HCl], the “Drug crystals in dried matrix” value ([1]; Example 9, DURO-TAK 2516, equivalent to 1% (w/w) HCl salt, HCl) was “contains visible solid drug crystals” and the “Drug crystals in dried matrix” value ([1]; Example 9, NACOR 72-9965, 1% (w/w)) was “physically stable and free of drug crystals”.
With Clc1cccc(Cl)c1N=C1NCCN1 [clonidine HCl] the “Drug crystals in dried matrix” value ([1]; Example 10, water-based PIB 500/BUTYL 100 (Lord), 2% (w/w)) was “visibly free of drug crystals”.
In the case of O=C(O)Cc1ccccc1Nc1c(Cl)cccc1Cl [diclofenac sodium], the “Dissolution in organic solvent system” value ([2]; TSR) is reported as “not sufficiently soluble”, the “Drug crystals in dried matrix” value [1, 5] is reported as “contained crystallized drug” and the “Drug crystals in dried matrices” value ([1]; Example 7, water-based NACOR 72-9965 and ROBOND PS20, 1% or 2% (w/w)) is reported as “physically stable and visually free of drug crystals”.
